Values belong to the compound of their own block, whether it stands above or below them.
Columns and labels:
[1] = tested on: ATP aptamer (screened, 32 nt, 5'FAM modified) (DNA, aptamer) TGGCGTCTGCATGCAGGTCGACGCATGCGCCG; test: graphene oxide fluorescence recovery; conditions: 5 mM KCl, 100 mM NaCl, 1 mM MgCl2, 50 mM Tris-HCl pH 7.4, 25 °C, aptamer 300 nM
[2] = tested on: Classic ATP aptamer (DNA, aptamer) ACCTGGGGGAGTATTGCGGAGGAAGGT; test: graphene oxide fluorescence recovery; conditions: 5 mM KCl, 100 mM NaCl, 1 mM MgCl2, 50 mM Tris-HCl pH 7.4, 25 °C, aptamer 300 nM
[3] = tested on: ATP aptamer (screened, 32 nt, 5'FAM modified) (DNA, aptamer) TGGCGTCTGCATGCAGGTCGACGCATGCGCCG; test: graphene oxide fluorescence assay, aptamer titrated at fixed ATP; conditions: 5 mM KCl, 100 mM NaCl, 1 mM MgCl2, 50 mM Tris-HCl pH 7.4, 25 °C, aptamer 50–500 nM, 1 μL of 100 mM in 200 μL
[4] = tested on: FAM-labeled functional chimera sequence (DNA, aptamer) TGGCGTCTGCATGCAGGTCGACGCATGCGCCGCCTGAGCTTAGAT; test: fluorescence recovery from graphene oxide; conditions: 5 mM KCl, 100 mM NaCl, 1 mM MgCl2; 50 mM Tris-HCl pH 7.4, 25 °C; chimera 2 μM, ATP 1 mM
[5] = tested on: Functional chimera sequence (DNA, aptamer) TGGCGTCTGCATGCAGGTCGACGCATGCGCCGCCTGAGCTTAGAT; test: release from graphene oxide, PAGE; conditions: 5 mM KCl, 100 mM NaCl, 1 mM MgCl2; 50 mM Tris-HCl pH 7.4, 25 °C; chimera 2 μM, ATP 1 mM

binding ([1]; 1 μL of 100 mM AMP, ATP 4.7-fold higher): weak | binding ([2]; 1 μL of 100 mM AMP): yes
SMILES: Nc1ncnc2c1ncn2[C@@H]1O[C@H](COP(=O)(O)O)[C@@H](O)[C@H]1O

binding ([1]; 1 μL of 100 mM ADP, ATP 2.4-fold higher): weak | binding ([2]; 1 μL of 100 mM ADP): yes
SMILES: Nc1ncnc2c1ncn2[C@@H]1O[C@H](COP(=O)(O)OP(=O)(O)O)[C@@H](O)[C@H]1O

Kd [3]: 70.61 ± 20.91 nM | binding [4]: yes | binding ([2]; 1 μL of 100 mM ATP): yes | binding [5]: yes
SMILES: Nc1ncnc2c1ncn2[C@@H]1O[C@H](COP(=O)(O)OP(=O)(O)OP(=O)(O)O)[C@@H](O)[C@H]1O
